Experimental data published in ChEMBL document CHEMBL3525998, “Metabolism of saikosaponin a in rats: diverse oxidations on the aglycone moiety in liver and intestine in addition to hydrolysis of glycosidic bonds” (Drug Metab Dispos, 2013).

Key:
Format in all cases: ADME, organism-based
Plasma [1] = assay: Drug uptake in Sprague-Dawley rat plasma at 50 mg/kg, po administered through gavage by LC-DAD-IT-TOF-MS analysis; design: dose 50 mg/kg, route oral; conditions: in vivo
[2] = Drug excretion in Sprague-Dawley rat bile at 50 mg/kg, po administered through gavage by LC-DAD-IT-TOF-MS analysis; design: dose 50 mg/kg, route oral; conditions: in vivo
[3] = Drug excretion in Sprague-Dawley rat urine at 50 mg/kg, po administered through gavage by LC-DAD-IT-TOF-MS analysis; design: dose 50 mg/kg, route oral; conditions: in vivo
Rattus norvegicus = species on record: Rattus norvegicus; assay: Drug metabolism in Sprague-Dawley rat assessed as retention time by LC-DAD-IT-TOF-MS analysis
Plasma [4] = assay: Drug metabolism in Sprague-Dawley rat plasma assessed as metabolite delta1-saikogenin f formation at 15 mg/kg, iv by LC-DAD-IT-TOF-MS analysis; design: dose 15 mg/kg, route intravenous; conditions: in vivo
[5] = Drug excretion in Sprague-Dawley rat bile assessed as metabolite delta1-saikogenin f level at 15 mg/kg, iv by LC-DAD-IT-TOF-MS analysis; design: dose 15 mg/kg, route intravenous; conditions: in vivo
[6] = Drug excretion in Sprague-Dawley rat feces assessed as metabolite delta1-saikogenin f level at 15 mg/kg, iv by LC-DAD-IT-TOF-MS analysis; design: dose 15 mg/kg, route intravenous; conditions: in vivo
[7] = Drug excretion in Sprague-Dawley rat feces assessed as metabolite prosaikogenin f level at 50 mg/kg, po administered through gavage by LC-DAD-IT-TOF-MS analysis; design: dose 50 mg/kg, route oral; conditions: in vivo
Plasma [8] = assay: Drug metabolism in Sprague-Dawley rat plasma assessed as metabolite saikogenin f formation at 50 mg/kg, po administered through gavage by LC-DAD-IT-TOF-MS analysis; design: dose 50 mg/kg, route oral; conditions: in vivo
[9] = Drug excretion in Sprague-Dawley rat bile assessed as metabolite saikogenin f level at 50 mg/kg, po administered through gavage by LC-DAD-IT-TOF-MS analysis; design: dose 50 mg/kg, route oral; conditions: in vivo
[10] = Drug excretion in Sprague-Dawley rat urine assessed as metabolite saikogenin f level at 50 mg/kg, po administered through gavage by LC-DAD-IT-TOF-MS analysis; design: dose 50 mg/kg, route oral; conditions: in vivo
[11] = Drug excretion in Sprague-Dawley rat bile assessed as metabolite 3-keto-saikogenin f level at 50 mg/kg, po administered through gavage by LC-DAD-IT-TOF-MS analysis; design: dose 50 mg/kg, route oral; conditions: in vivo
[12] = Drug excretion in Sprague-Dawley rat feces assessed as metabolite 3-keto-saikogenin f level at 50 mg/kg, po administered through gavage by LC-DAD-IT-TOF-MS analysis; design: dose 50 mg/kg, route oral; conditions: in vivo
[13] = Drug excretion in Sprague-Dawley rat urine assessed as metabolite delta1-saikogenin f level at 50 mg/kg, po administered through gavage by LC-DAD-IT-TOF-MS analysis; design: dose 50 mg/kg, route oral; conditions: in vivo
[14] = Drug excretion in Sprague-Dawley rat feces assessed as metabolite delta1-saikogenin f level at 50 mg/kg, po administered through gavage by LC-DAD-IT-TOF-MS analysis; design: dose 50 mg/kg, route oral; conditions: in vivo
[15] = Drug excretion in Sprague-Dawley rat urine assessed as metabolite saikogenin f-27-oic acid level at 50 mg/kg, po administered through gavage by LC-DAD-IT-TOF-MS analysis; design: dose 50 mg/kg, route oral; conditions: in vivo
[16] = Drug excretion in Sprague-Dawley rat feces assessed as metabolite hydroxysaikosaponin a level at 15 mg/kg, iv by LC-DAD-IT-TOF-MS analysis; design: dose 15 mg/kg, route intravenous; conditions: in vivo
[17] = Drug excretion in Sprague-Dawley rat feces assessed as metabolite prosaikogenin f level at 15 mg/kg, iv by LC-DAD-IT-TOF-MS analysis; design: dose 15 mg/kg, route intravenous; conditions: in vivo
[18] = Drug excretion in Sprague-Dawley rat urine assessed as metabolite saikogenin f level at 15 mg/kg, iv by LC-DAD-IT-TOF-MS analysis; design: dose 15 mg/kg, route intravenous; conditions: in vivo
[19] = Drug excretion in Sprague-Dawley rat bile assessed as metabolite 3-keto-saikogenin f level at 15 mg/kg, iv by LC-DAD-IT-TOF-MS analysis; design: dose 15 mg/kg, route intravenous; conditions: in vivo

C[C@H]1O[C@@H](O[C@H]2CC[C@@]3(C)[C@@H](CC[C@]4(C)[C@@H]3C=C[C@]35OC[C@@]6(CCC(C)(C)C[C@H]63)[C@@H](O)C[C@]54C)[C@]2(C)CO)[C@H](O)[C@@H](O[C@@H]2O[C@H](CO)[C@@H](O)[C@H](O)[C@H]2O)[C@H]1O [SAIKOSAPONIN A]
Drug uptake (Plasma [1]): Active | Drug excretion [2]: metabolite_detected | Drug excretion [3]: metabolite_detected | Retention_time (Rattus norvegicus): 39.9 min | Drug metabolism (Plasma [4]): metabolite_not_detected | Drug excretion [5]: metabolite_not_detected | Drug excretion [6]: metabolite_not_detected | Drug excretion [7]: metabolite_detected | Drug metabolism (Plasma [8]): metabolite_not_detected | Drug excretion [9]: metabolite_not_detected | Drug excretion [10]: metabolite_detected | Drug excretion [11]: metabolite_not_detected | Drug excretion [12]: metabolite_detected | Drug excretion [13]: metabolite_detected | Drug excretion [14]: metabolite_detected | Drug excretion [15]: metabolite_detected | Drug excretion [16]: metabolite_not_detected | Drug excretion [17]: metabolite_detected | Drug excretion [18]: metabolite_not_detected | Drug excretion [19]: metabolite_not_detected
